Test: Substitution in treated hydroxyapatite, mass spectrometry
Text: The analysis of the samples of treated hydroxyapatite is continued by mass spectrometry. The percentage of calcium substituted by titanium and the percentage of hydroxyl groups substituted by fluorine are compared with those obtained after bringing the hydroxyapatite into contact with the sodium fluoride solution.

Compound: [F-].[Na+] [NaF, Sodium fluoride]
- Substitution of Ca by Ti: 0.3%
- Substitution of OH by F: 52.0%

From patent US20050287085A1, “Composition for improving the physico-chemical properties of apatite-based materials, uses thereof and method using same” (DENTSPLY INTERNATIONAL INC., priority 2002, published 2005)
